Data set [1] deals with T1, hCB2 receptor (Homo sapiens, UniProt P34972). Nature of the data set: Radioligand binding assays with [3H]CP55,940 and [3H]WIN55,212-2 on CHO-K1-hCB2 membranes. Also on record: expressed in transfected cells; host or cells: CHO-K1. Conditions: for enhancement of [3H]CP55,940 and [3H]WIN55,212-2 receptor binding: 100 nM and 1 μM; for Kb: pKB, ternary complex model. Here is the method:
After the incubation time, membrane suspensions were rapidly filtered through a 0.1% polyethyleneimine presoaked 96-well microplate bonded with GF/B glass fiber filters (UniFilter-96 GF/B, PerkinElmer Life Sciences) under vacuum and washed 12 times with 150 μL of ice-cold binding buffer Filters were added with 40 μL of MicroScint20 scintillation liquid, and radioactivity was measured with the Trilux top counter (PerkinElmer Life Sciences). Data were collected from 3–10 independent experiments, each performed in triplicate, and the nonspecific binding was subtracted. The results are expressed as a percentage of vehicle-treated samples.

Data set [2] addresses T1, hCB2 receptor. Nature of the data set: [35S]GTPγS assay on hCB2 membranes. In kind it is biochemical. Also on record: expressed in transfected cells; host or cells: CHO-K1. Conditions: for EC50 / [35S]GTPγS assay Max. Effect: 2-AG, mean (95% CI). As to the method:
Assays were performed as previously described. Clean membranes expressing hCB2 were diluted in silanized plastic tubes with GTPγS binding buffer (50 mM Tris-HCl, 3 mM MgCl2, 0.2 mM EGTA and 100 mM NaCl at pH 7.4 supplemented with 0.5% fatty acid-free BSA) in the presence of 10 μM of GDP and 0.1 nM of [^35S]GTPγS. The mixture was kept on ice until the binding reaction was started by adding the vehicle or compounds. Non-specific binding was measured in presence of 10 μM GTPγS. The tubes were incubated at 30 °C for 90 min under shaking and then put on ice to stop the reaction. An aliquot (185 μL) of the reaction mixture was rapidly filtered through a 96-well microplate bonded with GF/B glass fibre filters previously pre-soaked with ice-cold washing buffer (50 mM of Tris-HCl pH 7.4 plus 0.1% fatty acid-free BSA). The filters were washed six times with 180 µL of washing buffer under vacuum. The radioactivity was measured after the addition of 45 µL of MicroScint20 scintillation cocktail. Specific binding was calculated by subtracting the residual radioactivity signal obtained in presence of an excess of GTPγS and the results were expressed as % of vehicle control.

In data set [3] the target is T1, hCB2 receptor. Briefly: cAMP assay in CHO-K1-hCB2 cells (GloSensor). In kind it is cell-based. Also on record: expressed in transfected cells; host or cells: CHO-K1. Conditions: for EC50: 2-AG, mean (95% CI). As to the method: cAMP assays were performed in CHO-K1-hCB2 stably transfected with the pGloSensorTM 22-F plasmid (Promega) as previously described. Briefly, cells were seeded in 96-well plate and after attachment the medium was replaced by 40 µL of equilibration medium (GloSensor™ cAMP Reagent diluted in 5% v v^−1 of CO2-independent medium plus 10% FBS). The plates were incubated for 2 h at RT in the dark. […] Chemiluminescence was monitored continuously starting from immediately after the addition and for 30 min (keeping the plate at RT and in the dark). Basal levels of chemiluminescence (cells plus IBMX and vehicle without forskolin) were subtracted to the measured values. Results were normalized by subtracting the residual cAMP production and expressed as % of vehicle control.

The target of data set [4] is T1, hCB2 receptor. Nature of the data set: Equilibrium binding / displacement of fluorescent pepcan-F4 on CHO-K1-hCB2 cells. Also noted: expressed in transfected cells; host or cells: CHO-K1. To be noted: for Ki: 100 nM pepcan-F4. As to the method: The equilibrium dissociation constant (Kd value) of the fluorescein-labeled pepcan-12 derivative pepcan-F4 was determined using CHO-K1-hCB2 cells as previously described. Equilibrium saturation binding was determined experimentally, and maximal specific binding (saturation) was reached already at 5 min at 37 °C. Different concentrations of pepcans and 100 nM pepcan-F4 were incubated together with […] suspended in 200 μL of binding buffer in silanized plastic tubes, under shaking for 60 min at 37 °C. After centrifugation at 4 °C and washing with ice-cold binding buffer, the cells were resuspended in ice-cold PBS and transferred into 96-well black plates, where the fluorescence intensities were measured using a Tecan Farcyte reader (485 nm excitation/535 nm emission). The specific binding was determined after washing and subtracting the nonspecific fluorescence calculated in parallel experiments carried out in non-transfected CHO cells.

For data set [5], the target named is T1, hCB2 receptor. Nature of the data set: Dissociation kinetics of [3H]CP55,940 by isotopic dilution. In kind it is binding. Also noted: expressed in transfected cells. To be noted: 1 μM CP55,940 added to bound [3H]CP55,940 (0.5 nM), 300 nM pepcan-12. Here is the method: Dissociation kinetics experiments were performed as described before. […] […] […] After the incubation time, membrane suspensions were rapidly filtered through a 0.1% polyethyleneimine presoaked 96-well microplate bonded with GF/B glass fiber filters and washed as described above.

Where “and” joins values, the source holds several entries; their conditions need not be identical. Equal values may be shown once. No end group written: not given here.

Consider eight compounds from publication PMC5573408, “Pepcan-12 (RVD-hemopressin) is a CB2 receptor positive allosteric modulator constitutively secreted by adrenals and in liver upon tissue damage” (Scientific Reports, 2017).

T1 sequence (P34972 whole entry): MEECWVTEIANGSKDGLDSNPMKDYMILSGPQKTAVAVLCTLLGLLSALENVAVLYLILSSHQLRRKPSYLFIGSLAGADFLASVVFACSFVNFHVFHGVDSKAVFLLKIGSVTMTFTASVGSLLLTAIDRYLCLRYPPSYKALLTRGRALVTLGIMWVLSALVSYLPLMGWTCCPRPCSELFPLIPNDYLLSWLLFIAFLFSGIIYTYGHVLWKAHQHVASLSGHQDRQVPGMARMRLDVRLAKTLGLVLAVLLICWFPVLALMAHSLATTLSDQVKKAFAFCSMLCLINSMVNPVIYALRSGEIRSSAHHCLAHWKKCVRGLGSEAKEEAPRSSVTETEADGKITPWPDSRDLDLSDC

Consider KLRVDPVNFKLLSH [Pepcan-14], for which, on hCB2 receptor [1], the “enhancement of [3H]CP55,940 and [3H]WIN55,212-2 receptor binding” value is given as “weaker yet still significant effects”. In addition, the “effect on [35S]GTPγS binding in absence of agonist” value on hCB2 receptor [2] (no orthosteric ligand) is “Lack of effects”. At hCB2 receptor [3] (no orthosteric ligand), the “effect on cAMP levels in absence of agonist” value was “Lack of effects”.

By Ki is commonly meant the dissociation constant of the complex between target and ligand, obtained from inhibition or displacement. Low readings indicate higher affinity, high ones lower affinity. The compound SDLHAHKLRVDPVNFKLLSH [Pepcan-20] yielded a Ki on hCB2 receptor [4] of over 10 µM.

Regarding HKLRVDPVNFKLLSH [Pepcan-15], at hCB2 receptor [4], the Ki stood at 0.0778 ± 0.0082 µM.

Usually EC50 stands for the concentration at which the effect is half-maximal. A higher EC50 goes with a less potent agent. Regarding `CCCCC/C=C\C/C=C\C/C=C\C/C=C\CCCC(=O)OC(CO)CO` [Pepcan 2-AG, 2-arachidonoyl glycerol], the EC50 on hCB2 receptor [2] (pepcan-12 0 nM) stood at 0.0958 µM; on hCB2 receptor [2] (pepcan-12 10 nM), 0.0649 µM; at hCB2 receptor [2] (pepcan-12 30 nM), 0.0409 µM; at hCB2 receptor [2] (pepcan-12 100 nM), 0.0354 µM; at hCB2 receptor [3] (pepcan-12 0 nM), 0.0921 µM; on hCB2 receptor [3] (pepcan-12 10 nM), 0.102 µM. Also, the figures for the EC50 on hCB2 receptor [3] (pepcan-12 30 nM) and at hCB2 receptor [3] (pepcan-12 100 nM) were 0.0251 µM and 0.0124 µM, respectively. Further, the “[35S]GTPγS assay Max. Effect” value on hCB2 receptor [2] (pepcan-12 0 nM) is given as 235 (220–251) % of crtl; at hCB2 receptor [2] (pepcan-12 10 nM) it was 238 (221–251) % of crtl; at hCB2 receptor [2] (pepcan-12 30 nM) it was 254 (237–272) % of crtl; on hCB2 receptor [2] (pepcan-12 100 nM), 291 (265–318) % of crtl.

As to “pepcan-F4: C-terminal fluorescence-labeled (fluorescein) pepcan-12 conjugate (RVDPVNFKLLSH; synthetic pepcan-12 (alpha-hemoglobin fragment)”, in the data set with hCB2 receptor [4] (specific saturation curve, read-out: apparent Kd for hCB2 receptors), the Kd turned out to be 0.123 ± 0.0412 µM.

As for HAHKLRVDPVNFKLLSH [Pepcan-17], the inhibition constant Ki at hCB2 receptor [4] was found to be 0.183 ± 0.0394 µM.

For the compound “SALSDLHAHKLRVDPVNFKLLSH [Pepcan-23, putative precursor of pepcan-12]”, the “enhancement of [3H]CP55,940 and [3H]WIN55,212-2 receptor binding” value in the data set with hCB2 receptor [1] is reported as “did not exhibit any receptor interaction”.

Turning to RVDPVNFKLLSH [Pepcan-12], at hCB2 receptor [5], the “Half-life (fast)” value is 0.844 (0.703 to 1.057) min. Moreover, the “Half-life (slow)” value on hCB2 receptor [5] is given as 49.90 (29.3 to 169.3) min. Also, the Kb on hCB2 receptor [1] ([3H]CP55,940 bound) is 0.0589 µM; on hCB2 receptor [1] ([3H]WIN55,212-2 bound), 0.0537 µM. The Ki at hCB2 receptor [4] was 0.0447 µM and ~0.05 µM.
